Experimental data as given in paper PMC10150366, “Discovery of an In Vivo Chemical Probe for BCL6 Inhibition by Optimization of Tricyclic Quinolinones” (Journal of Medicinal Chemistry, 2023).

Columns and labels:
EDNRA = biological target: T1, EDNRA (Homo sapiens, UniProt P25101); assay: SAFETYscan Calcium Flux EDNRA Antagonist; format: cell-based
T1 sequence (P25101 21-427): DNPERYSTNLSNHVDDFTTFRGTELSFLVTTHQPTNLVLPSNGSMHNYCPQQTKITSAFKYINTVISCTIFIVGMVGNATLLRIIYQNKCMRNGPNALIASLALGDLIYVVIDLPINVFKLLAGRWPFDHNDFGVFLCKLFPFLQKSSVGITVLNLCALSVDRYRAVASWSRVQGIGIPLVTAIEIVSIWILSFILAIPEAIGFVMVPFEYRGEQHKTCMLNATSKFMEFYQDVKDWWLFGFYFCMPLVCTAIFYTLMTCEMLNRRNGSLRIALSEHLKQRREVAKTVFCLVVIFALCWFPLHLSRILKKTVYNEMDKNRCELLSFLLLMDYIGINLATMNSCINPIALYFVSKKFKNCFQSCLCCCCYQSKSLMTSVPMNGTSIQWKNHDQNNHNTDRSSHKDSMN
Source text: (§1) Supplement jm3c00155_si_002.xlsx, sheet "SAFETYScan" | column: RC50 (uM); Max Response

ADRA1A = biological target: T2, ADRA1A (Homo sapiens, UniProt P35348); assay: SAFETYscan Calcium Flux ADRA1A Antagonist; format: cell-based
T2 sequence (P35348 1-466): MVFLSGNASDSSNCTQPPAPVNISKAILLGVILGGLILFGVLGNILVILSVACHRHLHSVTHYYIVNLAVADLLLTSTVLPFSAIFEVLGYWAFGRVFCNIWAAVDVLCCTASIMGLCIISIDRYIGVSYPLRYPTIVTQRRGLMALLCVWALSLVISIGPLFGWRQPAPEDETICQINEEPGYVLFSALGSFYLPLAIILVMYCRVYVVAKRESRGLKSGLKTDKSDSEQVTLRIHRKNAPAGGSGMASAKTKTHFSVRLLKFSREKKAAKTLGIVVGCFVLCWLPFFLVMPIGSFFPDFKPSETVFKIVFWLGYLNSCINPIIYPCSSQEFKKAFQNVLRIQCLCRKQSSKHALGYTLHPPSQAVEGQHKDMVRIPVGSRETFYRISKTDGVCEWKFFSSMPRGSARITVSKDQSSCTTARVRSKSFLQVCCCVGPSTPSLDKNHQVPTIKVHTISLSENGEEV
Source text: as §1

LCK = LCK (Homo sapiens, UniProt P06239); assay: SAFETYscan Kinases Binding LCK Inhibitor
Chain of LCK (P06239 whole entry): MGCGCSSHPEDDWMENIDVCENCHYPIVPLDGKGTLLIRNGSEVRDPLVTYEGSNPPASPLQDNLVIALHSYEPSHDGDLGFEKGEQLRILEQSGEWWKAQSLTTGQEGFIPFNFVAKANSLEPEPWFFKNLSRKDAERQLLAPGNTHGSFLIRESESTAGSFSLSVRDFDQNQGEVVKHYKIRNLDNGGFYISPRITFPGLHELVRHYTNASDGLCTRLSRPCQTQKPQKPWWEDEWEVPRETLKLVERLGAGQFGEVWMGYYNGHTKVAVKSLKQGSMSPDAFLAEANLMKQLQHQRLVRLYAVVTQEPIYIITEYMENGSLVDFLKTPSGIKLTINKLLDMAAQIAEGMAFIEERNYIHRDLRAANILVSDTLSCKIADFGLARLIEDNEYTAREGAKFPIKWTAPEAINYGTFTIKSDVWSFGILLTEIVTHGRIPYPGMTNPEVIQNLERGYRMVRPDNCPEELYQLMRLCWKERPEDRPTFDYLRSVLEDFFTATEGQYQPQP
Source text: as §1

ADRB1 = ADRB1 (Homo sapiens, UniProt P08588); assay: SAFETYscan cAMP ADRB1 Agonist; format: cell-based
Chain of ADRB1 (P08588 whole entry): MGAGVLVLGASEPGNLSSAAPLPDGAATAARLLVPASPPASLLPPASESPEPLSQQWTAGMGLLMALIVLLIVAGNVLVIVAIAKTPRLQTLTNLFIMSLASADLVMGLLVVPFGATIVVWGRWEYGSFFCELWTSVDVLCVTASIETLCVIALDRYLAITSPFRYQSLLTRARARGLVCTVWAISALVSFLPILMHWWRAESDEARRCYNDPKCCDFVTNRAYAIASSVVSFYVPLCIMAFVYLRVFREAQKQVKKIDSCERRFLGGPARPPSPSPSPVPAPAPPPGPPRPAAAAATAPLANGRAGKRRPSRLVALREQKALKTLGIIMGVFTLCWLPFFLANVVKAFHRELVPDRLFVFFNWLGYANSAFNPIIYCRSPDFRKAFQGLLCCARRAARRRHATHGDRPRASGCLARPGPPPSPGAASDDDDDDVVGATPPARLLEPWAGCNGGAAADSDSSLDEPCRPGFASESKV
Source text: as §1

SU-DHL-4 = assay: 14-day cell proliferation assay, SU-DHL-4; format: cell-based; conditions: Homo sapiens, 14-day assay
Source text: DMSO final concentration.
After a short centrifugation the
(1st emission filter) / 450-80 nm (2nd emission filter). The % inhibition at each test concentration was […]
sigmoidal four-parameter logistic fit equation.
2.3 Cell proliferation assay
Aldrich) supplemented with 10% FBS (Gibco). Compounds were initially dispensed into 96-well U-bottom […]
transferred onto the cells.
Assay plates containing cells
(Beckman Coulter). The volume of medium containing 2500 cells in the control well was calculated and this volume of cells was transferred from every well of the assay plates to the corresponding well of the fresh plates containing compound. After 14 days, CellTiter Glo reagent (Promega) was added to the medium in each well of the assay plate at a ratio of 1:2, mixed on a plate shaker, then incubated at room temperature for 10 minutes. Luminescence was measured using an Envision plate reader (Perkin Elmer) and the relative luminescence at each compound concentration, compared to DMSO alone, was calculated. GI50 were determined using a 4-parameter curve fit in Dotmatics (Bishops Stortford, UK).

CHRM1 = biological target: T3, CHRM1 (Homo sapiens, UniProt P11229); assay: SAFETYscan Calcium Flux CHRM1 Agonist; format: cell-based
T3 sequence (P11229 1-460): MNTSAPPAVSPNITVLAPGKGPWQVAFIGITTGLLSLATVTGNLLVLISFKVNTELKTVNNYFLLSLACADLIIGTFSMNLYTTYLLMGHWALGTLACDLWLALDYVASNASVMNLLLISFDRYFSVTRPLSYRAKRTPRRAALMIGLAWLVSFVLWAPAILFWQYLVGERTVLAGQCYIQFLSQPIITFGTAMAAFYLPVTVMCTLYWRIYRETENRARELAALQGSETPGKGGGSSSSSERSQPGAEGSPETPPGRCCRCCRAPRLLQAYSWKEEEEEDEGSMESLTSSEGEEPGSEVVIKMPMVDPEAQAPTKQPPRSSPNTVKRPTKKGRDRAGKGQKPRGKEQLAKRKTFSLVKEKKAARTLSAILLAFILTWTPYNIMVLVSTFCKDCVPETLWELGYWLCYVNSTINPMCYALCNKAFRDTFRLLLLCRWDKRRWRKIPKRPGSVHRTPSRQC
Source text: as §1

GR = biological target: T4, GR (Homo sapiens, UniProt P04150); assay: SAFETYscan NHR Protein Interaction GR Agonist; format: cell-based
T4 sequence (P04150 1-777): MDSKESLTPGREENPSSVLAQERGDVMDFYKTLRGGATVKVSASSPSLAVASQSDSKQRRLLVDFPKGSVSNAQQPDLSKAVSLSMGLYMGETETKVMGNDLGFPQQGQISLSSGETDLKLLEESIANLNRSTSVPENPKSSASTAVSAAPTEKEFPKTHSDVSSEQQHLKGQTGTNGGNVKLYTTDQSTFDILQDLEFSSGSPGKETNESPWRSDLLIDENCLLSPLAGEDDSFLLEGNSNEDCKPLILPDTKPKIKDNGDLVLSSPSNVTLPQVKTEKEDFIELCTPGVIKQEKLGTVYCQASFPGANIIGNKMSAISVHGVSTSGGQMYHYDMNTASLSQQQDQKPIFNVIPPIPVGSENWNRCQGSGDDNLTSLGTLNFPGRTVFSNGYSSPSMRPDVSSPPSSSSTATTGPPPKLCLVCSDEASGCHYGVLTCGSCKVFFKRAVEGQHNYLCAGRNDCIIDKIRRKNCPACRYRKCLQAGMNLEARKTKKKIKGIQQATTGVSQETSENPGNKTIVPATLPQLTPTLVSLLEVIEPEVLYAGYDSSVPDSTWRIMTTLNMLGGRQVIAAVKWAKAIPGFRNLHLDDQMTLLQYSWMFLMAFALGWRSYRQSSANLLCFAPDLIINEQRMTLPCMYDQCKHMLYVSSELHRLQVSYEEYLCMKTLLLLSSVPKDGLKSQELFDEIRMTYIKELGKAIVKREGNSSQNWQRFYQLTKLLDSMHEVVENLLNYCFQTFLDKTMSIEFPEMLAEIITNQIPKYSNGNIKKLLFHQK
Source text: as §1

KvLQT1/minK = KvLQT1/minK (Homo sapiens, UniProt P51787); assay: SAFETYscan Ion Channel KvLQT1/minK Blocker; format: cell-based
Source text: as §1

In the case of `Cn1c(=O)c2c(c3cc(Nc4ccnc(F)c4Cl)ccc31)N[C@@H](C1CC1)C(F)(F)CO2` [compound 17, (S)-10-((3-chloro-2-fluoropyridin-4-yl)amino)-2-cyclopropyl-3,3-difluoro-7-methyl-1,2,3,4-tetrahydro-[1,4]oxazepino[2,3-c]quinolin-6(7H)-one], the Emax (EDNRA; read-out: Max Response) is reported as 0%, the IC50 (EDNRA; read-out: RC50 (IC50)) is reported as > 10 µM and the IC50 (ADRA1A) is reported as > 10 µM. For the same compound, the Emax (ADRA1A; ADRA1A, Calcium Flux, Antagonist, read-out: Max Response) was 0%, the Emax (LCK; read-out: Max Response) was 0.08% and the IC50 (LCK; read-out: RC50 (IC50)) was > 10 µM. For the same compound, the Emax (ADRB1; read-out: Max Response) was 0%, the EC50 (ADRB1; read-out: RC50 (EC50)) was > 10 µM and the GI50 (SU-DHL-4) was 1.38 µM. The EC50 (CHRM1) was > 10 µM, the Emax (CHRM1; CHRM1, Calcium Flux, Agonist, read-out: Max Response) was 1.44% and the Emax (GR; read-out: Max Response) was 0%. The EC50 (GR; read-out: RC50 (EC50)) was > 10 µM, the Emax (KvLQT1/minK; read-out: Max Response) was 12.6% and the IC50 (KvLQT1/minK; read-out: RC50 (IC50)) was > 10 µM.
